{"source": "patent US8476256B2", "about": "“Diazonamide analogs” (Joyant Pharmaceuticals, Inc., priority 2008, dated 2013)", "key": {"[1]": {"test_system": "A2058 (human melanoma) cell line", "assay": "Cell viability assay (CELL-TITER-GLO), A2058", "format": "cell-based", "conditions": "A2058 cells, 48 hour treatment, 1 nM to 1 μM", "protocol": "(§1) Cell viability assays were run using standard protocols known to those of skill in art. Cells were plated in 96 well plates at the density of 3,000-10,000 cells per well. Twenty four hours later, cells were treated with increasing concentration of test compounds (1 nM to 1 μM). After another 48 hour, cell survival was measured using CELL-TITER-GLO® reagent (Promega) following the protocol provided by the manufacture. The IC50 value was determined as the concentration of test compound that kills 50% of the cell population.\n(§2) Cell viability data generated according to the protocol described herein was generated for representative compounds in the A2058 (human melanoma) and U937 (human leukemic monocyte lymphoma) cell lines. The compound of Example 16 (“Compound J”) was used as a reference compound."}, "[2]": {"test_system": "U937 (human leukemic monocyte lymphoma) cell line", "assay": "Cell viability assay (CELL-TITER-GLO), U937", "format": "cell-based", "conditions": "U-937, U937 cells, 48 hour treatment, 1 nM to 1 μM", "protocol": "as §1, §2"}}, "data": [{"smiles": "CC(C)[C@H](O)C(=O)N[C@H]1Cc2ccc3c(c2)C24C5=C(N=C(O5)[C@H](C(C)C)NC1=O)c1nc(Cl)c(o1)-c1c(Cl)[nH]c5cccc(c15)-c1cccc2c1N[C@H]4O3", "note": "(stereo in doubt) [Example 85, Diazonamide A]", "values": [{"measurement": "IC50", "setting": "[1]", "result": 0.057, "unit": "µM"}, {"measurement": "IC50", "setting": "[2]", "result": 0.086, "unit": "µM"}]}, {"smiles": "CC(C)[C@@H]1NC(=O)[C@@H](NC(=O)[C@@H](O)c2ccccc2)Cc2ccc3c(c2)C24C5=C(N=C1O5)c1ncc(o1)-c1c[nH]c5cccc(c15)-c1cccc2c1N[C@H]4O3", "note": "(some centres unmarked) [Example 17]", "values": [{"measurement": "IC50", "setting": "[1]", "result": 0.63, "unit": "µM"}, {"measurement": "IC50", "setting": "[2]", "result": 0.465, "unit": "µM"}]}, {"smiles": "CC(C)[C@@H]1NC(=O)C(NC(=O)[C@H](C)O)Cc2ccc3c(c2)[C@]24C5=C(N=C1O5)c1ncc(o1)-c1c[nH]c5cccc(c15)-c1cccc2c1NC4O3", "note": "(some centres unmarked) [Example 18]", "values": [{"measurement": "IC50", "setting": "[1]", "result": 0.394, "unit": "µM"}, {"measurement": "IC50", "setting": "[2]", "result": 0.208, "unit": "µM"}]}, {"smiles": "CC(C)[C@@H]1NC(=O)C(NC(=O)[C@@H](O)C(C)(C)C)Cc2ccc3c(c2)[C@]24C5=C(N=C1O5)c1ncc(o1)-c1c[nH]c5cccc(c15)-c1cccc2c1NC4O3", "note": "(some centres unmarked) [Example 19]", "values": [{"measurement": "IC50", "setting": "[1]", "result": 0.222, "unit": "µM"}, {"measurement": "IC50", "setting": "[2]", "result": 0.062, "unit": "µM"}]}, {"smiles": "CC(C)C[C@H](O)C(=O)NC1Cc2ccc3c(c2)[C@]24C5=C(N=C(O5)[C@H](C(C)C)NC1=O)c1ncc(o1)-c1c[nH]c5cccc(c15)-c1cccc2c1NC4O3", "note": "(some centres unmarked) [Example 20]", "values": [{"measurement": "IC50", "setting": "[1]", "result": 0.158, "unit": "µM"}, {"measurement": "IC50", "setting": "[2]", "result": 0.142, "unit": "µM"}]}, {"smiles": "CC(C)[C@@H]1NC(=O)C(NC(=O)[C@@H](O)C2CCCCC2)Cc2ccc3c(c2)[C@]24C5=C(N=C1O5)c1ncc(o1)-c1c[nH]c5cccc(c15)-c1cccc2c1NC4O3", "note": "(some centres unmarked) [Example 21]", "values": [{"measurement": "IC50", "setting": "[1]", "result": "> 1", "unit": "µM"}, {"measurement": "IC50", "setting": "[2]", "result": "> 1", "unit": "µM"}]}, {"smiles": "CC(C)[C@@H]1NC(=O)C(NC(=O)C(C)(C)O)Cc2ccc3c(c2)[C@]24C5=C(N=C1O5)c1ncc(o1)-c1c[nH]c5cccc(c15)-c1cccc2c1NC4O3", "note": "(some centres unmarked) [Example 22]", "values": [{"measurement": "IC50", "setting": "[1]", "result": 0.23, "unit": "µM"}, {"measurement": "IC50", "setting": "[2]", "result": 0.146, "unit": "µM"}]}, {"smiles": "CC(C)[C@@H]1NC(=O)C(NC(=O)C2(O)CC2)Cc2ccc3c(c2)[C@]24C5=C(N=C1O5)c1ncc(o1)-c1c[nH]c5cccc(c15)-c1cccc2c1NC4O3", "note": "(some centres unmarked) [Example 25]", "values": [{"measurement": "IC50", "setting": "[1]", "result": 0.769, "unit": "µM"}, {"measurement": "IC50", "setting": "[2]", "result": 0.42, "unit": "µM"}]}, {"smiles": "CC(C)[C@@H]1NC(=O)C(NC(=O)C2(O)CCCC2)Cc2ccc3c(c2)[C@]24C5=C(N=C1O5)c1ncc(o1)-c1c[nH]c5cccc(c15)-c1cccc2c1NC4O3", "note": "(some centres unmarked) [Example 26]", "values": [{"measurement": "IC50", "setting": "[1]", "result": 0.214, "unit": "µM"}, {"measurement": "IC50", "setting": "[2]", "result": 0.154, "unit": "µM"}]}, {"smiles": "CC(C)[C@@H]1NC(=O)C(NC(=O)C2(O)CCCCC2)Cc2ccc3c(c2)[C@]24C5=C(N=C1O5)c1ncc(o1)-c1c[nH]c5cccc(c15)-c1cccc2c1NC4O3", "note": "(some centres unmarked) [Example 27]", "values": [{"measurement": "IC50", "setting": "[1]", "result": 0.181, "unit": "µM"}, {"measurement": "IC50", "setting": "[2]", "result": 0.128, "unit": "µM"}]}, {"smiles": "CCC(CO)(CO)C(=O)NC1Cc2ccc3c(c2)[C@]24C5=C(N=C(O5)[C@H](C(C)C)NC1=O)c1ncc(o1)-c1c[nH]c5cccc(c15)-c1cccc2c1NC4O3", "note": "(some centres unmarked) [Example 28]", "values": [{"measurement": "IC50", "setting": "[1]", "result": 0.208, "unit": "µM"}, {"measurement": "IC50", "setting": "[2]", "result": 0.133, "unit": "µM"}]}, {"smiles": "CC(C)[C@@H]1NC(=O)C(NC(=O)[C@H](O)[C@@H](NC(=O)c2ccccc2)c2ccccc2)Cc2ccc3c(c2)[C@]24C5=C(N=C1O5)c1ncc(o1)-c1c[nH]c5cccc(c15)-c1cccc2c1NC4O3", "note": "(some centres unmarked) [Example 29]", "values": [{"measurement": "IC50", "setting": "[1]", "result": "> 1", "unit": "µM"}, {"measurement": "IC50", "setting": "[2]", "result": "> 1", "unit": "µM"}]}, {"smiles": "CO[C@H](C(=O)N[C@H]1Cc2ccc3c(c2)C24C5=C(N=C(O5)[C@H](C(C)C)NC1=O)c1ncc(o1)-c1c[nH]c5cccc(c15)-c1cccc2c1N[C@H]4O3)C(C)C", "note": "(some centres unmarked) [Example 30]", "values": [{"measurement": "IC50", "setting": "[1]", "result": 0.197, "unit": "µM"}, {"measurement": "IC50", "setting": "[2]", "result": 0.224, "unit": "µM"}]}, {"smiles": "CC(=O)O[C@H](C(=O)N[C@H]1Cc2ccc3c(c2)C24C5=C(N=C(O5)[C@H](C(C)C)NC1=O)c1ncc(o1)-c1c[nH]c5cccc(c15)-c1cccc2c1N[C@H]4O3)C(C)C", "note": "(some centres unmarked) [Example 31]", "values": [{"measurement": "IC50", "setting": "[1]", "result": 0.194, "unit": "µM"}, {"measurement": "IC50", "setting": "[2]", "result": 0.062, "unit": "µM"}]}, {"smiles": "COC(=O)O[C@H](C(=O)N[C@H]1Cc2ccc3c(c2)C24C5=C(N=C(O5)[C@H](C(C)C)NC1=O)c1ncc(o1)-c1c[nH]c5cccc(c15)-c1cccc2c1N[C@H]4O3)C(C)C", "note": "(some centres unmarked) [Example 32]", "values": [{"measurement": "IC50", "setting": "[1]", "result": 0.211, "unit": "µM"}, {"measurement": "IC50", "setting": "[2]", "result": 0.157, "unit": "µM"}]}, {"smiles": "CC(C)[C@H](N)C(=O)N[C@H]1Cc2ccc3c(c2)C24C5=C(N=C(O5)[C@H](C(C)C)NC1=O)c1ncc(o1)-c1c[nH]c5cccc(c15)-c1cccc2c1N[C@H]4O3", "note": "(some centres unmarked) [Example 33]", "values": [{"measurement": "IC50", "setting": "[1]", "result": 1.44, "unit": "µM"}, {"measurement": "IC50", "setting": "[2]", "result": 0.572, "unit": "µM"}]}]}
